# In patent US20180353565A1, “PHARMACEUTICAL FORMULATIONS AND THEIR USE FOR THE TREATMENT OF RETINITIS PIGMENTOSA” (KALEYDE PHARMACEUTICALS AG, priority 2016, published 2018):
# Where a SMILES comes first, the peptide text is derived from it. [ ]: non-standard residue; d: D form. αMeF = C[C@](N)(Cc1ccccc1)C(=O)O; Aib = CC(C)(N)C(=O)O
# What was measured:
# [1] = test system: RCS/Kyo rat (Royal College of Surgeons rat); assay: Efficacy in RCS/KYO rats by intravitreal or subcutaneous administration (retinal and ONL thickness under the microscope); type: in vivo; conditions: for Retinal thickness % of control / Thickness of ONL % of control / Thickness of ONL (outer nuclear layer): age 49 days; for Retinal thickness: measured at age 49 days
# Text: The RCS/Kyo rat (Royal College of Surgeons rat) represents the most commonly used model in the study of this eye disease. RCS rats present retinal degeneration that makes them the ideal model for the study of this disease. […] The epithelial cells of the retina in these animals are unable to ingest the […] photoreceptor cells, and those photoreceptors therefore die.
# 45 male and female RCS/Kyo rats, aged 14/21 days, were employed, using the tetrapeptide Ac-Arg-Aib-Arg-α(Me)Phe-NH2, formulated as reported in example 1A, at the concentration of 1.2 mg/mL for intravitreal injection, or 7.6 mg/mL for subcutaneous injection.
# The treatment regimen used is set out below:
# After euthanasia of the rats at the age of 49 days, the thickness of the retina in the various groups was measured under the microscope:
# The thickness of the outer layer of granules (outer nuclear layer, ONL, cell body of cones and rods) was also measured.
# [2] = Plasma pharmacokinetics after single subcutaneous administration (LC-MS); type: in vivo, Sprague-Dawley rats; conditions: Dose 16.6 mg/kg s.c.
# Description: (§1) 10 Male Sprague-Dawley rats were used. The rats were divided into two groups of 5 for determination of plasma pharmacokinetics and tissue distribution, by single subcutaneous administration at the dose of 16.6 mg/kg in a volume of 1 mL/kg. Blood samples were taken after 0.25, 0.5, 1, 2, 4, 6, 8 and 24 hours; subsequently, in the second group of rats, tissue samples were taken at Tmax. The kinetic equation, Cmax, Tmax, plasma half-life and AUC were determined. The concentrations were measured by LC-MS.
# [3] = Tissue distribution at Tmax after single subcutaneous administration (LC-MS); type: in vivo, Sprague-Dawley rats; conditions: at Tmax after 16.6 mg/kg s.c., rat
# Description: as §1
# As will be seen, the kidney is the organ with the highest values compared with the other tissues. However, in the eyes, which represent the target tissue, the peptide is present with a tissue plasma ratio of about 5.
# [4] = test system: mice with oxygen-induced retinopathy; conditions: cited from earlier work
# [5] = group S-ivt-sd-t: intravitreal, therapeutic, single dose 4 μg at day 22
# [6] = group S-sc-rd-p: subcutaneous, preventive, 1800 μg from day 14, 6 times a week for 5 weeks
# [7] = group S-sc-rd-t: subcutaneous, therapeutic, 1800 μg from day 22, 6 times a week for 4 weeks
# [8] = male, Sprague-Dawley, sc, rat plasma
# [9] = intravitreal injection, OIR mice
smiles,measurement,setting,value
CC(=O)N[C@@H](CCCNC(=N)N)C(=O)NC(C)(C)C(=O)N[C@@H](CCCNC(=N)N)C(=O)N[C@@](C)(Cc1ccccc1)C(N)=O [Ac-Arg-Aib-Arg-α(Me)Phe-NH2] (Ac-R[Aib]R[αMeF]-NH2),Effect on retinal structure,[1]; RCS/KYO rats,restore nearly all the strongly deteriorated retinal structure
same,Change of retinal thickness,"[1]; all the treated groups, preventive treatment to a lesser extent",considerable increase in retinal thickness
same,Retinal thickness % of control,[1]; [5],110 % of control
same,Thickness of ONL % of control,[1]; [5],134 % of control
same,Thickness of ONL (outer nuclear layer),[1]; [5],12.09 μm
same,Retinal thickness,"[1]; group S-ivt-sd-t: intravitreal, therapeutic, single dose 4 μg at day 22 after birth",132.08 μm
same,Retinal thickness % of control,[1]; [6],130 % of control
same,Thickness of ONL % of control,[1]; [6],196 % of control
same,Thickness of ONL (outer nuclear layer),[1]; [6],17.64 μm
same,Retinal thickness,[1]; [6],155.25 μm
same,Retinal thickness % of control,[1]; [7],153 % of control
same,Thickness of ONL % of control,[1]; [7],196 % of control
same,Thickness of ONL (outer nuclear layer),[1]; [7],17.62 μm
same,Retinal thickness,[1]; [7],182.67 μm
same,Change of ONL thickness,[1]; repeated subcutaneous doses,double the thickness of the layer
same,Increase of the photoreceptor layer,[1]; single dose of 4 μg per eye,34%
same,Kelim,[2]; rat plasma,0.309 ± 0.029 h⁻¹
same,Tmax,"[2]; male, Sprague-Dawley, rat, plasma, sc, 16.6 mg/kg",~2 h
same,AUC(0-inf),[2]; [8],39300 ± 4010 ng·h/mL
same,AUC(0-t),[2]; [8],39300 ± 3990 ng·h/mL
same,Cmax,[2]; [8],5910 ± 1180 ng/mL
same,half-life,[2]; [8],2.26 ± 0.226 h
same,"Tissue plasma ratio, eyes",[3],about 5
same,Effect on inflammatory markers,[4]; [9],reducing the anti-inflammatory markers
same,Effect on retinal neovascularization,[4]; [9],reducing retinal neovascularization
same,Effect on the blood-retinal barrier,[4]; [9],repairing dysfunctions of the blood-retinal barrier
same,"Effect on the structure of the retina (words, literature)","[4]; reported in IOVS (2015), 56(4) 2392-2407",does not modify the structure of the retina
